System: 857933-349-R-J2-PDC complex spheroid viability
Experiment: Anticancer human tumor 857933-349-R-J2-PDC patient-derived colon adenocarcinoma cell line growth inhibition [POLQ]
Details: for IC50: curve of first compound; for viability, T/C: stronger effect = lower value
Summary of the method: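 Three-cell-type spheroids modelling solid tumor plus stroma served as the readout system; POL inhibitors were tested individually and in combination, concentration ranges set by clinical Cmax where known.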

[1] = second compound 0.0316 µM, first compound 0.0316 µM
[2] = second compound 0.0316 µM, first compound 0.1 µM
[3] = second compound 0.0316 µM, first compound 0.316 µM
[4] = second compound 0.0316 µM, first compound 1 µM
[5] = second compound 0.0316 µM, first compound 3.16 µM
[6] = second compound 0.0316 µM, first compound 10 µM
[7] = second compound 0.1 µM, first compound 0.0316 µM
[8] = second compound 0.1 µM, first compound 0.1 µM
[9] = second compound 0.1 µM, first compound 0.316 µM
[10] = second compound 0.1 µM, first compound 1 µM
[11] = second compound 0.1 µM, first compound 3.16 µM
[12] = second compound 0.1 µM, first compound 10 µM
[13] = second compound 0.316 µM, first compound 0.0316 µM
[14] = second compound 0.316 µM, first compound 0.1 µM
[15] = second compound 0.316 µM, first compound 0.316 µM
[16] = second compound 0.316 µM, first compound 1 µM
[17] = second compound 0.316 µM, first compound 3.16 µM
[18] = second compound 0.316 µM, first compound 10 µM
[19] = second compound 1 µM, first compound 0.0316 µM
[20] = second compound 1 µM, first compound 0.1 µM
[21] = second compound 1 µM, first compound 0.316 µM
[22] = second compound 1 µM, first compound 1 µM
[23] = second compound 1 µM, first compound 3.16 µM
[24] = second compound 1 µM, first compound 10 µM
[25] = second compound 3.16 µM, first compound 0.0316 µM
[26] = second compound 3.16 µM, first compound 0.1 µM
[27] = second compound 3.16 µM, first compound 0.316 µM
[28] = second compound 3.16 µM, first compound 1 µM
[29] = second compound 3.16 µM, first compound 3.16 µM
[30] = second compound 3.16 µM, first compound 10 µM
[31] = second compound 10 µM, first compound 0.0316 µM
[32] = second compound 10 µM, first compound 0.1 µM
[33] = second compound 10 µM, first compound 0.316 µM
[34] = second compound 10 µM, first compound 1 µM
[35] = second compound 10 µM, first compound 3.16 µM
[36] = second compound 10 µM, first compound 10 µM
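Also: spheroids exposed to compounds for seven days before readout.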

CCCS(=O)(=O)Nc1ccc(F)c(C(=O)c2c[nH]c3ncc(-c4ccc(Cl)cc4)cc23)c1F + COC1C(OC(N)=O)C(O)C(Oc2ccc3c(O)c(NC(=O)c4ccc(O)c(CC=C(C)C)c4)c(=O)oc3c2C)OC1(C)C
IC50 (second compound 0.0316 µM): 5.65 µM | IC50 (second compound 0.1 µM): 6.17 µM | IC50 (second compound 0.316 µM): 5.04 µM | IC50 (second compound 1 µM): 5.74 µM | IC50 (second compound 3.16 µM): 5.75 µM | IC50 (second compound 10 µM): 6.76 µM | viability, T/C [1]: 73.7% | viability, T/C [2]: 113% | viability, T/C [3]: 96.1% | viability, T/C [4]: 117% | viability, T/C [5]: 85% | viability, T/C [6]: 15.7% | viability, T/C [7]: 96.9% | viability, T/C [8]: 112% | viability, T/C [9]: 107% | viability, T/C [10]: 109% | viability, T/C [11]: 103% | viability, T/C [12]: 12.1% | viability, T/C [13]: 132% | viability, T/C [14]: 121% | viability, T/C [15]: 76.7% | viability, T/C [16]: 99.8% | viability, T/C [17]: 85% | viability, T/C [18]: 12.4% | viability, T/C [19]: 108% | viability, T/C [20]: 77.6% | viability, T/C [21]: 121% | viability, T/C [22]: 94.5% | viability, T/C [23]: 89.9% | viability, T/C [24]: 13.3% | viability, T/C [25]: 108% | viability, T/C [26]: 117% | viability, T/C [27]: 101% | viability, T/C [28]: 95.5% | viability, T/C [29]: 89.2% | viability, T/C [30]: 16.6% | viability, T/C [31]: 93.9% | viability, T/C [32]: 83.7% | viability, T/C [33]: 93.7% | viability, T/C [34]: 82.5% | viability, T/C [35]: 87.1% | viability, T/C [36]: 30.9%

COc1ccc([C@@H](O)c2cc(-c3ncnc4cc(N5CCOCC5)ccc34)c(F)cc2Cl)nn1 + COC1C(OC(N)=O)C(O)C(Oc2ccc3c(O)c(NC(=O)c4ccc(O)c(CC=C(C)C)c4)c(=O)oc3c2C)OC1(C)C
IC50 (second compound 0.0316 µM): > 10 µM | IC50 (second compound 0.1 µM): > 10 µM | IC50 (second compound 0.316 µM): > 10 µM | IC50 (second compound 1 µM): > 10 µM | IC50 (second compound 3.16 µM): > 10 µM | IC50 (second compound 10 µM): > 10 µM | viability, T/C [1]: 114% | viability, T/C [2]: 102% | viability, T/C [3]: 123% | viability, T/C [4]: 96.2% | viability, T/C [5]: 91.4% | viability, T/C [6]: 65.3% | viability, T/C [7]: 91.5% | viability, T/C [8]: 123% | viability, T/C [9]: 87% | viability, T/C [10]: 98.7% | viability, T/C [11]: 72% | viability, T/C [12]: 94.3% | viability, T/C [13]: 112% | viability, T/C [14]: 102% | viability, T/C [15]: 84.5% | viability, T/C [16]: 89.2% | viability, T/C [17]: 76.1% | viability, T/C [18]: 61.1% | viability, T/C [19]: 100% | viability, T/C [20]: 93.4% | viability, T/C [21]: 106% | viability, T/C [22]: 79.5% | viability, T/C [23]: 89.8% | viability, T/C [24]: 65.7% | viability, T/C [25]: 89.4% | viability, T/C [26]: 118% | viability, T/C [27]: 101% | viability, T/C [28]: 94.3% | viability, T/C [29]: 77.5% | viability, T/C [30]: 63.8% | viability, T/C [31]: 101% | viability, T/C [32]: 93.5% | viability, T/C [33]: 107% | viability, T/C [34]: 69.5% | viability, T/C [35]: 76.4% | viability, T/C [36]: 72.3%

Cn1ncnc1[C@H]1c2n[nH]c(=O)c3cc(F)cc(c23)N[C@@H]1c1ccc(F)cc1 + COC1C(OC(N)=O)C(O)C(Oc2ccc3c(O)c(NC(=O)c4ccc(O)c(CC=C(C)C)c4)c(=O)oc3c2C)OC1(C)C
IC50 (second compound 0.0316 µM): > 0.1 µM | IC50 (second compound 0.1 µM): > 0.1 µM | IC50 (second compound 0.316 µM): > 0.1 µM | IC50 (second compound 1 µM): > 0.1 µM | IC50 (second compound 3.16 µM): > 0.1 µM | IC50 (second compound 10 µM): > 0.1 µM | viability, T/C (second compound 0.0316 µM, first compound 0.000316 µM): 76.1% | viability, T/C (second compound 0.0316 µM, first compound 0.001 µM): 95.3% | viability, T/C (second compound 0.0316 µM, first compound 0.00316 µM): 77.6% | viability, T/C (second compound 0.0316 µM, first compound 0.01 µM): 92.6% | viability, T/C [1]: 90.5% | viability, T/C [2]: 100% | viability, T/C (second compound 0.1 µM, first compound 0.000316 µM): 106% | viability, T/C (second compound 0.1 µM, first compound 0.001 µM): 88.8% | viability, T/C (second compound 0.1 µM, first compound 0.00316 µM): 102% | viability, T/C (second compound 0.1 µM, first compound 0.01 µM): 96.2% | viability, T/C [7]: 96% | viability, T/C [8]: 84.7% | viability, T/C (second compound 0.316 µM, first compound 0.000316 µM): 89.2% | viability, T/C (second compound 0.316 µM, first compound 0.001 µM): 98.7% | viability, T/C (second compound 0.316 µM, first compound 0.00316 µM): 98.9% | viability, T/C (second compound 0.316 µM, first compound 0.01 µM): 77.8% | viability, T/C [13]: 93.1% | viability, T/C [14]: 88.4% | viability, T/C (second compound 1 µM, first compound 0.000316 µM): 75.9% | viability, T/C (second compound 1 µM, first compound 0.001 µM): 93.4% | viability, T/C (second compound 1 µM, first compound 0.00316 µM): 76.4% | viability, T/C (second compound 1 µM, first compound 0.01 µM): 77.8% | viability, T/C [19]: 97.7% | viability, T/C [20]: 107% | viability, T/C (second compound 3.16 µM, first compound 0.000316 µM): 78.6% | viability, T/C (second compound 3.16 µM, first compound 0.001 µM): 100% | viability, T/C (second compound 3.16 µM, first compound 0.00316 µM): 95.3% | viability, T/C (second compound 3.16 µM, first compound 0.01 µM): 92.8% | viability, T/C [25]: 87.8% | viability, T/C [26]: 77.7% | viability, T/C (second compound 10 µM, first compound 0.000316 µM): 60.5% | viability, T/C (second compound 10 µM, first compound 0.001 µM): 94.8% | viability, T/C (second compound 10 µM, first compound 0.00316 µM): 101% | viability, T/C (second compound 10 µM, first compound 0.01 µM): 76.2% | viability, T/C [31]: 94% | viability, T/C [32]: 103%

From PubChem BioAssay AID1963836 (Molecular Pharmacology Branch, DTP, NCI, 2024)
